Source: patent publication US10975037B2 (priority 2018, dated 2021)
Counter-ions that a name gives are not always drawn. Like-named read-outs stand apart in the source and are kept apart here.

Columns and labels:
[1] = biological target: human RORγt ligand binding domain (RORγt LBD) (Homo sapiens (Human), UniProt P51449); experiment: RORγt ThermoFluor® assay (thermal shift binding)
How it was run: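 Thermal shift with 0.065 mg/mL RORγt LBD and 60 μM 1,8-ANS in 100 mM Hepes pH 7.0, 10 mM NaCl, 2.5 mM GSH, 0.002% Tween-20.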

[2] = biological target: full-length human RORγt (Homo sapiens (Human), UniProt P51449); experiment: RORγt (full-length human) reporter assay, conditions A or B, HEK293T cells; format: cell-based; details: for inhibition at 6 µM: read-out: RORγt (FL) Reporter Assay A or B, % inhibition @ 6 μM, 6 μM compound concentration; for IC50: RORγt (FL) Reporter Assay A or B, IC50, HEK293T cells; for inhibition at 3 µM: 3 μM compound concentration (footnote *); for inhibition at 2 µM: 2 μM compound concentration
Chain of full-length human RORγt (P51449 other isoform, or with tags, fused parts or gaps): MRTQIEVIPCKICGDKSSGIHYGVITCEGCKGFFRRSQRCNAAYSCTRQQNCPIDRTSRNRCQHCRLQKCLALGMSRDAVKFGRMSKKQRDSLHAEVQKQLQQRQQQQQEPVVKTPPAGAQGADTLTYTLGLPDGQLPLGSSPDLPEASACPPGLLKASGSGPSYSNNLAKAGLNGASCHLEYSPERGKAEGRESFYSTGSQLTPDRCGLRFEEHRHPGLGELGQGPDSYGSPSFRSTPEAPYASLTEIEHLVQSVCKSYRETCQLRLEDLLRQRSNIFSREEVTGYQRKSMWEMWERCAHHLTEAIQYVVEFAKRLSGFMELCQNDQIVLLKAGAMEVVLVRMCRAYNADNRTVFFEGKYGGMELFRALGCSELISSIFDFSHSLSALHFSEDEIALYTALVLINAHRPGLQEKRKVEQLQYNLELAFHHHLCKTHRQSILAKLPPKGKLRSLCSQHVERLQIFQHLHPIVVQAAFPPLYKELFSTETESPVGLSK
How it was run: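 After 16–20 h, dual firefly/Renilla luciferase luminescence was read. Firefly signal was normalized to DMSO and saturating reference compound, then to Renilla, and fitted for IC50; % inhibition is versus DMSO.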

[3] = read-out: ThermoFluor® Assay, Kd
[4] = HEK-293T, read-out: RORγt (FL) Reporter Assay A or B, % inhibition

Chain of human RORγt ligand binding domain (RORγt LBD) (P51449 other isoform, or with tags, fused parts or gaps): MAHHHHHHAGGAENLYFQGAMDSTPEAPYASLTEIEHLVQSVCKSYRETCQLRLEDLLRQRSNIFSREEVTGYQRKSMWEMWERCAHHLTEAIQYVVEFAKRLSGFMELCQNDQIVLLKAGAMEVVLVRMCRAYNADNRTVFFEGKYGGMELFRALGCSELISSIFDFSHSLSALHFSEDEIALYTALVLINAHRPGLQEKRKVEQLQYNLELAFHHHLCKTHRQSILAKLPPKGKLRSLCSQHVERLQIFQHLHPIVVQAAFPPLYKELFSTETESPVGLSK

| Compound | Kd [1, 3] [nM] | IC50 [2] [nM] | inhibition at 2 µM [2, 4] [%] | further results |
| --- | --- | --- | --- | --- |
| COCCn1nc(C(=O)NC[C@]2(O)CC[C@@H](S(C)(=O)=O)CC2)c(Cl)c1-c1ccc(CC(C)(C)C(F)(F)F)cc1OC [Example 186, 4-Chloro-N-(((1s,4s)-1-hydroxy-4-(methylsulfonyl)cyclohexyl)methyl)-5-(2-methoxy-4-(3,3,3-trifluoro-2,2-dimethylpropyl)phenyl)-1-(2-methoxyethyl)-1H-pyrazole-3-carboxamide] | 7.7 | 34 |  | inhibition at 6 µM ([2]; HEK-293T): 96% |
| CCn1nc(C(=O)NC[C@H]2CC[C@H](S(C)(=O)=O)CC2)c(Cl)c1-c1ccc(NCC(F)(F)F)cc1OC [Example 25, 4-Chloro-1-ethyl-5-(2-methoxy-4-((2,2,2-trifluoroethyl)amino)phenyl)-N-(((1r,4r)-4-(methylsulfonyl)cyclohexyl)methyl)-1H-pyrazole-3-carboxamide] | 31 | 120 |  | inhibition at 6 µM ([2]; HEK-293T): 105% |
| CCn1nc(C(=O)NC[C@H]2CC[C@@H](S(C)(=O)=O)CN2)c(Cl)c1-c1ccc(CC(C)(C)C(F)(F)F)cc1OC(F)F (stereo in doubt) [Example 11, 4-Chloro-5-(2-(difluoromethoxy)-4-(3,3,3-trifluoro-2,2-dimethylpropyl)phenyl)-1-ethyl-N-(((2RS,5RS)-5-(methylsulfonyl)piperidin-2-yl)methyl)-1H-pyrazole-3-carboxamide Hydrobromide] |  | 190 |  | Kd ([1]; ThermoFluor® Assay, Kd): 35 nM; inhibition at 3 µM [2, 4]: 100% |
| CCn1nc(C(=O)NC[C@H]2CC[C@H](S(C)(=O)=O)CC2)c(Cl)c1-c1ccc(CC(C)(C)C(F)(F)F)cc1C(F)(F)F [Example 162, 4-Chloro-1-ethyl-N-(((1r,4r)-4-(methylsulfonyl)cyclohexyl)methyl)-5-(4-(3,3,3-trifluoro-2,2-dimethylpropyl)-2-(trifluoromethyl)phenyl)-1H-pyrazole-3-carboxamide] | 0.48 | 5.9 |  | inhibition at […] ([2]; HEK-293T, 0.22 μM compound concentration (footnote *******), read-out: RORγt (FL) Reporter Assay A or B, % inhibition): 72% |
| CCn1nc(C(=O)NC[C@H]2CC[C@H](S(C)(=O)=O)C[C@@H]2O)c(Cl)c1-c1ccc(CC(C)(C)C(F)(F)F)cc1OC(F)F (single isomer, unassigned) [Example 21, 4-Chloro-5-(2-(difluoromethoxy)-4-(3,3,3-trifluoro-2,2-dimethylpropyl)phenyl)-1-ethyl-N-(((1R*,2S*,4S*)-2-hydroxy-4-(methylsulfonyl)cyclohexyl)methyl)-H-pyrazole-3-carboxamide] |  | 3.6 |  | Kd ([1]; ThermoFluor® Assay, Kd): 0.37 nM; inhibition at […] ([2]; HEK-293T, 0.33 μM compound concentration (footnote *****), read-out: RORγt (FL) Reporter Assay A or B, % inhibition): 103% |
| CCn1nc(C(=O)NC[C@]2(O)CC[C@@H](S(C)(=O)=O)CC2)c(C)c1-c1ccc(CCC(F)(F)F)cc1OC [Example 225, 1-Ethyl-N-(((1s,4s)-1-hydroxy-4-(methylsulfonyl)cyclohexyl)methyl)-5-(2-methoxy-4-(3,3,3-trifluoropropyl)phenyl)-4-methyl-1H-pyrazole-3-carboxamide] | 26 | 93 | 76 |  |
| CCn1nc(C(=O)NC[C@H]2CC[C@H](S(C)(=O)=O)CC2)c(Cl)c1-c1ccc(CC(C(F)(F)F)C(F)(F)F)cc1OC [Example 84, 4-Chloro-1-ethyl-5-(2-methoxy-4-(3,3,3-trifluoro-2-(trifluoromethyl)propyl)phenyl)-N-(((1r,4r)-4-(methylsulfonyl)cyclohexyl)methyl)-1H-pyrazole-3-carboxamide] | 0.7 | 10 |  | inhibition at 0.67 µM [2, 4]: 87% |
| CCn1nc(C(=O)NC[C@]2(C#N)CC[C@@H](S(C)(=O)=O)CC2)c(Cl)c1-c1ccc(CC(C)(C)C(F)(F)F)cc1Cl [Example 166, 4-Chloro-5-(2-chloro-4-(3,3,3-trifluoro-2,2-dimethylpropyl)phenyl)-N-(((1s*,4s*)-1-cyano-4-(methylsulfonyl)cyclohexyl)methyl)-1-ethyl-1H-pyrazole-3-carboxamide] | 0.71 | 0.92 |  | inhibition at 0.07 µM ([2]; HEK-293T, 0.07 μM compound concentration (footnote *********), read-out: RORγt (FL) Reporter Assay A or B, % inhibition): 88% |
| COCCn1nc(C(=O)NC[C@]2(O)CC[C@@H](S(C)(=O)=O)CC2)c(C)c1-c1ccc(CC(C)(C)C(F)(F)F)cc1OC(F)F [Example 150, 5-(2-(Difluoromethoxy)-4-(3,3,3-trifluoro-2,2-dimethylpropyl)phenyl)-N-(((1s,4s)-1-hydroxy-4-(methylsulfonyl)cyclohexyl)methyl)-1-(2-methoxyethyl)-4-methyl-1H-pyrazole-3-carboxamide] | 1.9 | 13 | 95 |  |
| CCn1nc(C(=O)NC[C@@H]2CC[C@H](S(C)(=O)=O)CN2)c(Cl)c1-c1ccc(CC(C)(C)C(F)(F)F)cc1OC(F)F (stereo in doubt) [Example 12, 4-Chloro-5-(2-(difluoromethoxy)-4-(3,3,3-trifluoro-2,2-dimethylpropyl)phenyl)-1-ethyl-N-(((2S*,5S*)-5-(methylsulfonyl)piperidin-2-yl)methyl)-1H-pyrazole-3-carboxamide] |  | 91 |  | Kd ([1]; ThermoFluor® Assay, Kd): 74 nM; inhibition at 3 µM [2, 4]: 92% |
| CCn1nc(C(=O)NC[C@H]2CC[C@H](S(C)(=O)=O)CC2)c(Cl)c1-c1ccc(N[C@H](C)C(F)(F)F)cc1C(F)(F)F [Example 172, 4-Chloro-1-ethyl-N-(((1r,4R)-4-(methylsulfonyl)cyclohexyl)methyl)-5-(2-(trifluoromethyl)-4-(((R)-1,1,1-trifluoropropan-2-yl)amino)phenyl)-1H-pyrazole-3-carboxamide] | 3.8 | 28 | 100 |  |
| COCCn1nc(C(=O)NC[C@H]2CC[C@H](S(C)(=O)=O)CC2)c(Cl)c1-c1ccc(CC(C)(C)C(F)(F)F)cc1OC [Example 185, 4-Chloro-5-(2-methoxy-4-(3,3,3-trifluoro-2,2-dimethylpropyl)phenyl)-1-(2-methoxyethyl)-N-(((1r,4r)-4-(methylsulfonyl)cyclohexyl)methyl)-1H-pyrazole-3-carboxamide] | 2.4 | 30 | 92 |  |
| CCn1nc(C(=O)NC[C@]2(O)CC[C@@H](S(C)(=O)=O)CC2)c(Cl)c1-c1c(F)cc(C[C@H](C)C(F)(F)F)cc1F (single isomer, unassigned) [Example 198, 4-Chloro-5-(2,6-difluoro-4-((S*)-3,3,3-trifluoro-2-methylpropyl)phenyl)-1-ethyl-N-(((1s,4R)-1-hydroxy-4-(methylsulfonyl)cyclohexyl)methyl)-1H-pyrazole-3-carboxamide] |  | 79 | 69 | Kd ([1]; ThermoFluor® Assay, Kd): 16 nM |
| CCn1nc(C(=O)NC[C@]2(O)CC[C@@H](S(C)(=O)=O)CC2)c(Cl)c1-c1ccc(CCC(F)(F)F)cc1OC(F)(F)F [Example 188, 4-Chloro-1-ethyl-N-(((1s,4s)-1-hydroxy-4-(methylsulfonyl)cyclohexyl)methyl)-5-(2-(trifluoromethoxy)-4-(3,3,3-trifluoropropyl)phenyl)-1H-pyrazole-3-carboxamide] | 11 | > 2000 | 34 |  |
| CCn1nc(C(=O)NC[C@H]2CC[C@H](S(C)(=O)=O)CC2)c(Cl)c1-c1ccc(N2CC(C(F)(F)F)C2)cc1OC [Example 208, 4-Chloro-1-ethyl-5-(2-methoxy-4-(3-(trifluoromethyl)azetidin-1-yl)phenyl)-N-(((1r,4r)-4-(methylsulfonyl)cyclohexyl)methyl)-1H-pyrazole-3-carboxamide] | 40 | 150 | 87 |  |
